The structures appear in SMILES notation.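 A five-concentration, 48-hour dose response in 96-well plates underlies each endpoint, interpolated linearly between surrounding concentrations. TGI: concentration producing complete growth inhibition.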

For one experiment, the system named is A498 renal. Briefly: DTP human tumour cell line panel, 48 h.
Take `O=c1c2sc(=S)n(-c3ccc(F)cc3)c2ncn1/N=C/c1ccc(F)cc1F`: the TGI came out at 58.2 µM.

For the next experiment, the system named is IGROV1 ovarian. The experiment in a line: DTP human tumour cell line panel, 48 h.
Molecule `CCN(CC)/C(SCc1ccccc1)=C(\C(Cl)=C(Cl)Cl)[N+](=O)[O-]` returned a TGI of 33.8 µM.
Same read-out and setting: with `Cc1ccc2c(c1)C(=O)C1(Cc3ccccc3C1=O)C2` (stereo not given) the figure was above 100 µM; with `COc1cc(/C=C/C(=O)CC(=O)/C=C/c2ccc(OC(=O)CCCCC3CCSS3)c(OC)c2)ccc1OC(=O)CCCCC1CCSS1` (stereo not given), above 100 µM.
Still for that read-out and setting: the value for `O=c1c2sc(=S)n(-c3ccc(F)cc3)c2ncn1/N=C/c1ccc(F)cc1F` was 89.1 µM.

In the next experiment the test system is UO-31 renal. Briefly: DTP human tumour cell line panel, 48 h.
The molecule `CCN(CC)/C(SCc1ccccc1)=C(\C(Cl)=C(Cl)Cl)[N+](=O)[O-]` came in with a TGI of 38.9 µM.
Still for that read-out and setting: with `Cc1ccc2c(c1)C(=O)C1(Cc3ccccc3C1=O)C2` (stereo not given) the figure was 39 µM.
Same read-out and setting: the value for `COc1cc(/C=C/C(=O)CC(=O)/C=C/c2ccc(OC(=O)CCCCC3CCSS3)c(OC)c2)ccc1OC(=O)CCCCC1CCSS1` (stereo not given) was above 100 µM; that for `O=c1c2sc(=S)n(-c3ccc(F)cc3)c2ncn1/N=C/c1ccc(F)cc1F` was 89.8 µM.

The next experiment deals with NCI/ADR-RES ovarian. Briefly: DTP human tumour cell line panel, 48 h.
`CCN(CC)/C(SCc1ccccc1)=C(\C(Cl)=C(Cl)Cl)[N+](=O)[O-]` came in with a TGI of 38 µM.
`Cc1ccc2c(c1)C(=O)C1(Cc3ccccc3C1=O)C2` (stereo not given): the total growth inhibition concentration (TGI) was above 100 µM.
`COc1cc(/C=C/C(=O)CC(=O)/C=C/c2ccc(OC(=O)CCCCC3CCSS3)c(OC)c2)ccc1OC(=O)CCCCC1CCSS1` (stereo not given) showed a TGI above 100 µM.
For the molecule `O=c1c2sc(=S)n(-c3ccc(F)cc3)c2ncn1/N=C/c1ccc(F)cc1F`, the TGI is above 100 µM.

The subject of the next experiment is UACC-257 melanoma. The experiment in a line: DTP human tumour cell line panel, 48 h.
In turn, `CCN(CC)/C(SCc1ccccc1)=C(\C(Cl)=C(Cl)Cl)[N+](=O)[O-]` registered a TGI of 31.8 µM.
On the same count and under the same terms, with `Cc1ccc2c(c1)C(=O)C1(Cc3ccccc3C1=O)C2` (stereo not given) the figure was above 100 µM; with `COc1cc(/C=C/C(=O)CC(=O)/C=C/c2ccc(OC(=O)CCCCC3CCSS3)c(OC)c2)ccc1OC(=O)CCCCC1CCSS1` (stereo not given), above 100 µM.
The same measure, in the same setting: with `O=c1c2sc(=S)n(-c3ccc(F)cc3)c2ncn1/N=C/c1ccc(F)cc1F` the figure was above 100 µM.

The test system of the next experiment is CCRF-CEM leukemia. Briefly: DTP human tumour cell line panel, 48 h.
Take `CCN(CC)/C(SCc1ccccc1)=C(\C(Cl)=C(Cl)Cl)[N+](=O)[O-]`: the TGI was 52.2 µM.
The same measure, in the same setting: with `Cc1ccc2c(c1)C(=O)C1(Cc3ccccc3C1=O)C2` (stereo not given) the figure was above 100 µM.
Still for that read-out and setting: the value for `COc1cc(/C=C/C(=O)CC(=O)/C=C/c2ccc(OC(=O)CCCCC3CCSS3)c(OC)c2)ccc1OC(=O)CCCCC1CCSS1` (stereo not given) was above 100 µM; that for `O=c1c2sc(=S)n(-c3ccc(F)cc3)c2ncn1/N=C/c1ccc(F)cc1F` was above 100 µM.

A further experiment has as its system UACC-62 melanoma. Briefly: DTP human tumour cell line panel, 48 h.
Consider `CCN(CC)/C(SCc1ccccc1)=C(\C(Cl)=C(Cl)Cl)[N+](=O)[O-]`, for which the TGI turned out to be 18.1 µM.
On the same count and under the same terms, the value for `Cc1ccc2c(c1)C(=O)C1(Cc3ccccc3C1=O)C2` (stereo not given) was above 100 µM.
Consider `COc1cc(/C=C/C(=O)CC(=O)/C=C/c2ccc(OC(=O)CCCCC3CCSS3)c(OC)c2)ccc1OC(=O)CCCCC1CCSS1` (stereo not given), for which the TGI is above 100 µM.
`O=c1c2sc(=S)n(-c3ccc(F)cc3)c2ncn1/N=C/c1ccc(F)cc1F` gave a total growth inhibition concentration (TGI) above 100 µM.

In a further experiment the test system is OVCAR-5 ovarian. The experiment in a line: DTP human tumour cell line panel, 48 h.
Take `CCN(CC)/C(SCc1ccccc1)=C(\C(Cl)=C(Cl)Cl)[N+](=O)[O-]`: the TGI turned out to be 41.2 µM.
Molecule `Cc1ccc2c(c1)C(=O)C1(Cc3ccccc3C1=O)C2` (stereo not given) came in with a TGI above 100 µM.
For the molecule `COc1cc(/C=C/C(=O)CC(=O)/C=C/c2ccc(OC(=O)CCCCC3CCSS3)c(OC)c2)ccc1OC(=O)CCCCC1CCSS1` (stereo not given), the TGI was above 100 µM.
The same measure, in the same setting: the value for `O=c1c2sc(=S)n(-c3ccc(F)cc3)c2ncn1/N=C/c1ccc(F)cc1F` was above 100 µM.

A further experiment relates to KM12 colon. Briefly: DTP human tumour cell line panel, 48 h.
In the case of `CCN(CC)/C(SCc1ccccc1)=C(\C(Cl)=C(Cl)Cl)[N+](=O)[O-]`, the TGI is 36.5 µM.
The same measure, in the same setting: the value for `Cc1ccc2c(c1)C(=O)C1(Cc3ccccc3C1=O)C2` (stereo not given) was above 100 µM; that for `COc1cc(/C=C/C(=O)CC(=O)/C=C/c2ccc(OC(=O)CCCCC3CCSS3)c(OC)c2)ccc1OC(=O)CCCCC1CCSS1` (stereo not given) was above 100 µM; that for `O=c1c2sc(=S)n(-c3ccc(F)cc3)c2ncn1/N=C/c1ccc(F)cc1F` was above 100 µM.

Another experiment has as its system SR leukemia. Briefly: DTP human tumour cell line panel, 48 h.
`CCN(CC)/C(SCc1ccccc1)=C(\C(Cl)=C(Cl)Cl)[N+](=O)[O-]` registered a TGI of 73.6 µM.
As to `Cc1ccc2c(c1)C(=O)C1(Cc3ccccc3C1=O)C2` (stereo not given), the concentration for total growth inhibition (TGI) is above 100 µM.
Same read-out and setting: the value for `O=c1c2sc(=S)n(-c3ccc(F)cc3)c2ncn1/N=C/c1ccc(F)cc1F` was above 100 µM.

In another experiment the test system is EKVX NSCLC. Briefly: DTP human tumour cell line panel, 48 h.
The molecule `CCN(CC)/C(SCc1ccccc1)=C(\C(Cl)=C(Cl)Cl)[N+](=O)[O-]` gave a TGI of 56.4 µM.
Still for that read-out and setting: the value for `Cc1ccc2c(c1)C(=O)C1(Cc3ccccc3C1=O)C2` (stereo not given) was above 100 µM.
Molecule `COc1cc(/C=C/C(=O)CC(=O)/C=C/c2ccc(OC(=O)CCCCC3CCSS3)c(OC)c2)ccc1OC(=O)CCCCC1CCSS1` (stereo not given) had a TGI above 100 µM.
`O=c1c2sc(=S)n(-c3ccc(F)cc3)c2ncn1/N=C/c1ccc(F)cc1F` came in with a TGI of 39.2 µM.

In another experiment the test system is SK-MEL-28 melanoma. Briefly: DTP human tumour cell line panel, 48 h.
In turn, `CCN(CC)/C(SCc1ccccc1)=C(\C(Cl)=C(Cl)Cl)[N+](=O)[O-]` registered a TGI of 33.9 µM.
With `Cc1ccc2c(c1)C(=O)C1(Cc3ccccc3C1=O)C2` (stereo not given), the total growth inhibition concentration (TGI) is above 100 µM.
`COc1cc(/C=C/C(=O)CC(=O)/C=C/c2ccc(OC(=O)CCCCC3CCSS3)c(OC)c2)ccc1OC(=O)CCCCC1CCSS1` (stereo not given) registered a TGI above 100 µM.
The molecule `O=c1c2sc(=S)n(-c3ccc(F)cc3)c2ncn1/N=C/c1ccc(F)cc1F` yielded a total growth inhibition concentration (TGI) above 100 µM.

In another experiment the test system is 786-0 renal. The experiment in a line: DTP human tumour cell line panel, 48 h.
Molecule `CCN(CC)/C(SCc1ccccc1)=C(\C(Cl)=C(Cl)Cl)[N+](=O)[O-]` gave a TGI of 30.2 µM.
Take `Cc1ccc2c(c1)C(=O)C1(Cc3ccccc3C1=O)C2` (stereo not given): the TGI was above 100 µM.
Same read-out and setting: with `COc1cc(/C=C/C(=O)CC(=O)/C=C/c2ccc(OC(=O)CCCCC3CCSS3)c(OC)c2)ccc1OC(=O)CCCCC1CCSS1` (stereo not given) the figure was above 100 µM; with `O=c1c2sc(=S)n(-c3ccc(F)cc3)c2ncn1/N=C/c1ccc(F)cc1F`, 34.1 µM.

The subject of another experiment is OVCAR-3 ovarian. Briefly: DTP human tumour cell line panel, 48 h.
`CCN(CC)/C(SCc1ccccc1)=C(\C(Cl)=C(Cl)Cl)[N+](=O)[O-]` registered a TGI of 24.3 µM.
Still for that read-out and setting: the value for `Cc1ccc2c(c1)C(=O)C1(Cc3ccccc3C1=O)C2` (stereo not given) was above 100 µM; that for `COc1cc(/C=C/C(=O)CC(=O)/C=C/c2ccc(OC(=O)CCCCC3CCSS3)c(OC)c2)ccc1OC(=O)CCCCC1CCSS1` (stereo not given) was above 100 µM; that for `O=c1c2sc(=S)n(-c3ccc(F)cc3)c2ncn1/N=C/c1ccc(F)cc1F` was 61.5 µM.

In a further experiment the test system is SK-OV-3 ovarian. Briefly: DTP human tumour cell line panel, 48 h.
On to `CCN(CC)/C(SCc1ccccc1)=C(\C(Cl)=C(Cl)Cl)[N+](=O)[O-]`, for which the concentration for total growth inhibition (TGI) was above 100 µM.
The same measure, in the same setting: the value for `Cc1ccc2c(c1)C(=O)C1(Cc3ccccc3C1=O)C2` (stereo not given) was above 100 µM; that for `COc1cc(/C=C/C(=O)CC(=O)/C=C/c2ccc(OC(=O)CCCCC3CCSS3)c(OC)c2)ccc1OC(=O)CCCCC1CCSS1` (stereo not given) was above 100 µM.

What is called TGI is the concentration giving total growth inhibition.

The values are drawn from PubChem BioAssay (NCI).
